Where “and” joins values, the source holds several entries; their conditions need not be identical. Identical values can stand only once.
Key:
[1] = UV absorption (UV λmax and εmax) in solution; type: physicochemical
Text: There follow some examples where the UV λmax and εmax have been measured according to general methods known for the person skilled in the art by way of non-restrictive illustration of the present invention.

Compound: COC(=O)c1ccc(NC2=NC3=NC(Nc4ccc(C(=O)OC)cc4)=NC4=NC(Nc5ccc(C(=O)OC)cc5)=NC(=N2)N34)cc1 [Example 24, 2,5,8-tris-(4-(methoxycarbonyl)phenylamino)-1,3,4,6,7,9,9b-heptaazaphenalene]
- UV λmax ([1]; DMSO): 329 nm
- εmax ([1]; DMSO): 116000 M⁻¹ cm⁻¹
- melting point: 288 to 291 °C

Compound: COc1cccc(NC2=NC3=NC(Nc4cccc(OC)c4)=NC4=NC(Nc5cccc(OC)c5)=NC(=N2)N34)c1 [Example 20, 2,5,8-tris-(3-methoxyphenylamino)-1,3,4,6,7,9,9b-heptaazaphenalene]
- UV λmax ([1]; MeOH): 312 nm
- εmax ([1]; MeOH): 62000 M⁻¹ cm⁻¹
- melting point: > 275 °C

Compound: CCCCCCCCCCCCCCCCOC(=O)c1ccc(NC2=NC3=NC(Nc4ccc(C(=O)OCCCCCCCCCCCCCCCC)cc4)=NC4=NC(Nc5ccc(C(=O)OCCCCCCCCCCCCCCCC)cc5)=NC(=N2)N34)cc1 [Example 42, 2,5,8-tris-(4-(hexadecyloxycarbonyl)phenylamino)-1,3,4,6,7,9,9b-heptaazaphenalene]
- UV λmax ([1]; DMSO): 324 nm
- εmax ([1]; DMSO): 125000 M⁻¹ cm⁻¹
- melting point: 252 to 255 °C

Compound: CCCCCCC(CCCC)COC(=O)c1ccc(NC2=NC3=NC(Nc4ccc(C(=O)OCC(CCCC)CCCCCC)cc4)=NC4=NC(Nc5ccc(C(=O)OCC(CCCC)CCCCCC)cc5)=NC(=N2)N34)cc1 (stereo not drawn) [Example 36, 2,5,8-tris-(4-(2-butyloctyloxycarbonyl)phenylamino)-1,3,4,6,7,9,9b-heptaazaphenalene]
- UV λmax ([1]; CHCl3): 326 nm
- εmax ([1]; CHCl3): 119000 M⁻¹ cm⁻¹
- melting point: 215 to 222 °C

Compound: CC(C)[C@@H]1CC[C@@H](C)C[C@H]1OC(=O)c1ccc(NC2=NC3=NC(Nc4ccc(C(=O)O[C@@H]5C[C@H](C)CC[C@H]5C(C)C)cc4)=NC4=NC(Nc5ccc(C(=O)O[C@@H]6C[C@H](C)CC[C@H]6C(C)C)cc5)=NC(=N2)N34)cc1 [Example 30, 2,5,8-tris-(4-(L-menthylcarbonyl)phenylamino)-1,3,4,6,7,9,9b-heptaazaphenalene]
- UV λmax ([1]; DMSO): 326 nm
- εmax ([1]; DMSO): 118000 M⁻¹ cm⁻¹
- melting point: 202 to 206 °C

Compound: c1cnn(-c2ccc(NC3=NC4=NC(Nc5ccc(-n6cccn6)cc5)=NC5=NC(Nc6ccc(-n7cccn7)cc6)=NC(=N3)N45)cc2)c1 [Example 15, 2,5,8-tris-(4-(1H-pyrazol-1-yl)phenylamino)-1,3,4,6,7,9,9b-heptaazaphenalene]
- UV λmax ([1]; DMSO): 330 nm
- εmax ([1]; DMSO): 99000 M⁻¹ cm⁻¹
- melting point: 224 to 227 °C

Compound: c1ccc2cc(NC3=NC4=NC(Nc5ccc6ccccc6c5)=NC5=NC(Nc6ccc7ccccc7c6)=NC(=N3)N45)ccc2c1 [Example 17, 2,5,8-tris-(naphthalen-2-ylamino)-1,3,4,6,7,9,9b-heptaazaphenalene]
- UV λmax ([1]; DMSO): 279 nm and 331 nm
- εmax ([1]; DMSO): 89000 M⁻¹ cm⁻¹ and 75000 M⁻¹ cm⁻¹
- melting point: > 275 °C

Compound: O=C(c1ccccc1)c1ccc(NC2=NC3=NC(Nc4ccc(C(=O)c5ccccc5)cc4)=NC4=NC(Nc5ccc(C(=O)c6ccccc6)cc5)=NC(=N2)N34)cc1 [Example 14, 2,5,8-tris-(4-benzoylphenylamino)-1,3,4,6,7,9,9b-heptaazaphenalene]
- UV λmax ([1]; DMSO): 339 nm
- εmax ([1]; DMSO): 112000 M⁻¹ cm⁻¹
- melting point: > 270 °C

Compound: CCOC(=O)/C=C/c1ccc(NC2=NC3=NC(Nc4ccc(/C=C/C(=O)OCC)cc4)=NC4=NC(Nc5ccc(/C=C/C(=O)OCC)cc5)=NC(=N2)N34)cc1 [Example 22, 2,5,8-tris-(4-((E)-3-ethoxy-3-oxoprop-1-enyl)phenylamino)-1,3,4,6,7,9,9b-heptaazaphenalene]
- UV λmax ([1]; DMSO): 359 nm
- εmax ([1]; DMSO): 135900 M⁻¹ cm⁻¹
- melting point: > 275 °C

Compound: CCCCC(CC)COC(=O)/C=C/c1ccc(NC2=NC3=NC(Nc4ccc(/C=C/C(=O)OCC(CC)CCCC)cc4)=NC4=NC(Nc5ccc(/C=C/C(=O)OCC(CC)CCCC)cc5)=NC(=N2)N34)cc1 (stereo not drawn) [Example 32, 2,5,8-tris-(4-((E)-3-(2-ethylhexyloxy)-3-oxoprop-1-enyl)phenylamino)-1,3,4,6,7,9,9b-heptaazaphenalene]
- UV λmax ([1]; DMSO): 358 nm
- εmax ([1]; DMSO): 154000 M⁻¹ cm⁻¹
- melting point: 213 to 216 °C

— US20080193398A1, “Derivatives of Heptaazaphenalene, Methods for Obtaining Them, and Their Use as Protecting Agents Against Uv Radiation” (ISDIN, S.A., priority 2005, published 2008)
